The text below walks through data of patent US10662187B2, “Bruton's tyrosine kinase inhibitors” (Zibo Biopolar Changsheng Pharmaceutical Co. Ltd., priority 2016, dated 2020).

Some results are limits rather than exact numbers.

The assay addresses BTK (Homo sapiens (Human), UniProt Q06187). Put plainly: Btk kinase assay (HTRF). The format is biochemical. The conditions noted are these: [ATP]=80 μM, BTK=3.4 nM; read-out: BTK Inhibition. The protocol: Btk Kinase Assay and Other Kinases Assay Btk kinase activity was determined using a homogenous time resolved fluorescence (HTRF) methodology. Measurements were performed in a reaction volume of 15 μL using 384-well assay plates. Kinase enzyme, inhibitor, ATP and 1 μM peptide substrate were incubated in a reaction buffer compose of Hepes 50 mM (pH7.0), NaN3 0.02%, BSA 0.01%, Orthocanadate 0.1 mM. […] For each compound, enzyme activity as measured at various concentrations of compound, Negative control reactions were performed in the absence of inhibitor in two replicates and eight no enzyme controls were used to determine baseline fluorescence levels.

Chain of BTK (Q06187 whole entry, species assumed): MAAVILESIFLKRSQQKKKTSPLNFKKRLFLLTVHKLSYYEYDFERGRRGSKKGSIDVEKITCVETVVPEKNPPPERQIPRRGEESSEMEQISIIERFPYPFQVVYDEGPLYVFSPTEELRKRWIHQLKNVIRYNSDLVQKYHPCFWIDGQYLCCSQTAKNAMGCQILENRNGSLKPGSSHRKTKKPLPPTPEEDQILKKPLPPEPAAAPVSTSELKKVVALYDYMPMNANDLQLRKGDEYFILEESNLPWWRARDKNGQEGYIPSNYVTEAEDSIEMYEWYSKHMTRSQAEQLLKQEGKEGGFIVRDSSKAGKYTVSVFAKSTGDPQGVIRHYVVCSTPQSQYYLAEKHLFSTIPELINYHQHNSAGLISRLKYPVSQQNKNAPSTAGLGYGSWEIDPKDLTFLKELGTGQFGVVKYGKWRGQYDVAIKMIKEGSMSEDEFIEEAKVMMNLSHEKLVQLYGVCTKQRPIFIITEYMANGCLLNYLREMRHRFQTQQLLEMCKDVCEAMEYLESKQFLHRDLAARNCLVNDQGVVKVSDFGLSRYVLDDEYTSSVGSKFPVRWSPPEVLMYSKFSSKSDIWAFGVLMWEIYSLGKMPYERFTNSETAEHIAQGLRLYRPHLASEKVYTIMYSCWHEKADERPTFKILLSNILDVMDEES

Regarding `C=CC(=O)N1CCc2c(c(-c3ccc(Oc4cccc(OC)c4F)cc3)nn2[C@@H]2CCN(C(=O)C=C)C2)C1` [Compound 46, (R)-1-(3-(5-acryloyl-3-(4-(2-fluoro-3-methoxyphenoxy)phenyl)-4,5,6,7-tetrahydro-1H-pyrazolo[4,3-c]pyridin-1-yl)pyrrolidin-1-yl)prop-2-en-1-one], the IC50 is > 10 µM. Take `C=CC(=O)N1CC[C@@H](n2nc(-c3ccc(Oc4cccc(C)c4F)cc3)c3cnccc32)C1` [Compound 47, (R)-1-(3-(3-(4-(2-fluoro-3-methylphenoxy)phenyl)-1H-pyrazolo[4,3-c]pyridin-1-yl)pyrrolidin-1-yl)prop-2-en-1-one]: the IC50 was < 0.01 µM. The value for `C=CC(=O)N1CCC[C@@H](n2nc(-c3ccc(Oc4cccc(C)c4F)cc3)c3cnccc32)C1` [Compound 48, (R)-1-(3-(3-(4-(2-fluoro-3-methylphenoxy)phenyl)-1H-pyrazolo[4,3-c]pyridin-1-yl)piperidin-1-yl)prop-2-en-1-one] was 0.01 to 0.1 µM. In the case of `C=CC(=O)N1CC[C@@H](n2nc(-c3ccc(Oc4cccc(F)c4OC)cc3)c3cnccc32)C1` [Compound 49, (R)-1-(3-(3-(4-(3-fluoro-2-methoxyphenoxy)phenyl)-1H-pyrazolo[4,3-c]pyridin-1-yl)pyrrolidin-1-yl)prop-2-en-1-one] it was 0.01 to 0.1 µM; in that of `C=CC(=O)N1CCC[C@@H](n2nc(-c3ccc(Oc4cccc(F)c4OC)cc3)c3cnccc32)C1` [Compound 50, (R)-1-(3-(3-(4-(3-fluoro-2-methoxyphenoxy)phenyl)-1H-pyrazolo[4,3-c]pyridin-1-yl)piperidin-1-yl)prop-2-en-1-one], 0.01 to 0.1 µM. Consider `C=CC(=O)N1CCC[C@@H](n2nc(-c3ccc(Oc4ccccc4)c(F)c3)c3cnccc32)C1` [Compound 51, (R)-1-(3-(3-(3-fluoro-4-phenoxyphenyl)-1H-pyrazolo[4,3-c]pyridin-1-yl)piperidin-1-yl)prop-2-en-1-one], for which the IC50 is 0.01 to 0.1 µM. Take `C=CC(=O)N1CC(n2nc(-c3ccc(Oc4ccccc4)cc3)c3cnccc32)C1` [Compound 52, 1-(3-(3-(4-phenoxyphenyl)-1H-pyrazolo[4,3-c]pyridin-1-yl)azetidin-1-yl)prop-2-en-1-one]: the IC50 lay within 0.01 to 0.1 µM. In the case of `C=CC(=O)N1CCCC(Cn2nc(-c3ccc(Oc4ccccc4)cc3)c3cnccc32)C1` (centres unmarked) [Compound 53, 1-(3-((3-(4-phenoxyphenyl)-1H-pyrazolo[4,3-c]pyridin-1-yl)methyl)piperidin-1-yl)prop-2-en-1-one] it was 0.01 to 0.1 µM; in that of `C=CC(=O)N1CC[C@@H](n2nc(-c3ccc(Oc4ccccc4)cc3)c3c(N)cccc32)C1` [Compound 54, (R)-1-(3-(4-amino-3-(4-phenoxyphenyl)-1H-indazol-1-yl)pyrrolidin-1-yl)prop-2-en-1-one], 0.01 to 0.1 µM. In the case of `C=CC(=O)N1CCC[C@@H](n2nc(-c3ccc(Oc4ccccc4)cc3)c3c(N)cccc32)C1` [Compound 55, (R)-1-(3-(4-amino-3-(4-phenoxyphenyl)-1H-indazol-1-yl)piperidin-1-yl)prop-2-en-1-one] it was 0.01 to 0.1 µM. In the case of `C=CC(=O)N1CCC[C@@H](n2nc(-c3ccc(Oc4cccc(Cl)c4C)cc3)c3cnccc32)C1` [Compound 56, (R)-1-(3-(3-(4-(3-chloro-2-methylphenoxy)phenyl)-1H-pyrazolo[4,3-c]pyridin-1-yl)piperidin-1-yl)prop-2-en-1-one] it was 0.01 to 0.1 µM; in that of `C=CC(=O)N1CCC[C@@H](n2nc(-c3ccc(Oc4cccc(OC)c4C)cc3)c3cnccc32)C1` [Compound 57, (R)-1-(3-(3-(4-(3-methoxy-2-methylphenoxy)phenyl)-1H-pyrazolo[4,3-c]pyridin-1-yl)piperidin-1-yl)prop-2-en-1-one], 0.01 to 0.1 µM; in that of `C=CC(=O)N1CC[C@@H](n2nc(-c3ccc(Oc4cccc(OC)c4C)cc3)c3cnccc32)C1` [Compound 59, (R)-1-(3-(3-(4-(3-methoxy-2-methylphenoxy)phenyl)-1H-pyrazolo[4,3-c]pyridin-1-yl)pyrrolidin-1-yl)prop-2-en-1-one], 0.01 to 0.1 µM. `C=CC(=O)N1CC[C@@H](n2nc(-c3ccc(Oc4cccc(Cl)c4C)cc3)c3cnccc32)C1` [Compound 60, (R)-1-(3-(3-(4-(3-chloro-2-methylphenoxy)phenyl)-1H-pyrazolo[4,3-c]pyridin-1-yl)pyrrolidin-1-yl)prop-2-en-1-one]: the IC50 fell in the range of 0.01 to 0.1 µM. The value for `C=CC(=O)N1CCC[C@@H](n2nc(-c3ccc(Oc4cccc(OC)c4)cc3)c3cnccc32)C1` [Compound 65, (R)-1-(3-(3-(4-(3-methoxyphenoxy)phenyl)-1H-pyrazolo[4,3-c]pyridin-1-yl)piperidin-1-yl)prop-2-en-1-one] was 0.01 to 0.1 µM. The value for `C=CC(=O)N1CC[C@@H](n2nc(-c3ccc(Oc4ccccc4)cc3)c3cncc(F)c32)C1` [Compound 66] was < 0.01 µM. The value for `C=CC(=O)N1CC[C@@H](n2nc(-c3ccc(Oc4cccc(OC)c4F)cc3)c3cncc(C(F)F)c32)C1` [Compound 67, (R)-1-(3-(7-(difluoromethyl)-3-(4-(2-fluoro-3-melhoxyphenoxy)phenyl)-1H-pyrazolo[4,3-c]pyridin-1-yl)pyrrolidin-1-yl)prop-2-en-1-one] was < 0.01 µM; that for `C=CC(=O)N1CC[C@@H](n2nc(-c3ccc(Oc4cccc(OC)c4Cl)cc3)c3cncc(F)c32)C1` [Compound 68, (R)-1-(3-(3-(4-(2-chloro-3-methoxyphenoxy)phenyl)-7-fluoro-1H-pyrazolo [4,3-c]pyridin-1-yl)pyrrolidin-1-yl)prop-2-en-1-one] was < 0.01 µM. `C=CC(=O)N1CCC[C@@H](n2nc(-c3ccc(Oc4cccc(OC)c4F)cc3)c3cncc(F)c32)C1` [Compound 70, (R)-1-(3-(7-fluoro-3-(4-(2-fluoro-3-methoxyphenoxy)phenyl)-1H-pyrazolo[4,3-c]pyridin-1-yl)piperidin-1-yl)prop-2-en-1-one]: the IC50 was < 0.01 µM. In the case of `C=CC(=O)N1CCC[C@@H](n2nc(-c3ccc(Oc4cccc(OC)c4F)cc3)c3cncc(C(F)F)c32)C1` [Compound 72, (R)-1-(3-(7-(difluoromethyl)-3-(4-(2-fluoro-3-methoxyphenoxy)phenyl)-1H-pyrazolo[4,3-c]pyridin-1-yl)piperidin-1-yl)prop-2-en-1-one] it was 0.01 to 0.1 µM; in that of `COc1cccc(Oc2ccc(-c3nn([C@@H]4CCCN(C(=O)C5CC6(C5)CN(S(=O)(=O)c5ccc(C)cc5)C6)C4)c4c(OC)cncc34)cc2)c1F` [Compound 74, (R)-(3-(3-(4-(2-fluoro-3-methoxyphenoxy)phenyl)-7-methoxy-1H-pyrazolo [4,3-c]pyridin-1-yl)piperidin-1-yl)(2-tosyl-2-azaspiro[3.3]heptan-6-yl)methanone], 0.1 to 1 µM. In the case of `C=CC(=O)N1CCC[C@@H](n2nc(-c3ccc(Oc4cccc(OC)c4F)cc3)c3cncc(OCCCC)c32)C1` [Compound 76, (R)-1-(3-(7-butoxy-3-(4-(2-fluoro-3-methoxyphenoxy)phenyl)-1H-pyrazolo[4,3-c]pyridin-1-yl)piperidin-1-yl)prop-2-en-1-one] it was < 0.01 µM. In the case of `C=CC(=O)N1CCC[C@@H](n2nc(-c3ccc(Oc4cccc(OC)c4F)cc3)c3cncc(O)c32)C1` [Compound 82, (R)-1-(3-(3-(4-(2-fluoro-3-methoxyphenoxy)phenyl)-7-hydroxy-1H-pyrazolo[4,3-c]pyridin-1-yl)piperidin-1-yl)prop-2-en-1-one] it was < 0.01 µM.

For `C=CC(=O)N1CCC[C@@H](n2nc(-c3ccc(Oc4cccc(OC)c4F)cc3)c3cncc(OCCN)c32)C1` [Compound 87, (R)-1-(3-(7-(2-aminoethoxy)-3-(4-(2-fluoro-3-methoxyphenoxy)phenyl)-1H-pyrazolo[4,3-c]pyridin-1-yl)piperidin-1-yl)prop-2-en-1-one], the IC50 is 0.01 to 0.1 µM.

As for `C=CC(=O)N1CCC[C@@H](n2nc(-c3ccc(Oc4cccc(OC)c4OCCC)cc3)c3cncc(OCCC)c32)C1` [Compound 88, (R)-1-(3-(3-(4-(3-methoxy-2-propoxyphenoxy)phenyl)-7-propoxy-1H-pyrazolo[4,3-c]pyridin-1-yl)piperidin-1-yl)prop-2-en-1-one], the IC50 was in the range of 0.01 to 0.1 µM. The value for `CCC(=O)N1CCC[C@@H](n2nc(-c3ccc(Oc4cccc(OC)c4F)cc3)c3cncc(OC)c32)C1` [Compound 89, (R)-1-(3-(3-(4-(2-fluoro-3-methoxyphenoxy)phenyl)-7-methoxy-1H-pyrazolo[4,3-c]pyridin-1-yl)piperidin-1-yl)propan-1-one] was 0.1 to 1 µM; that for `COc1cccc(Oc2ccc(-c3nn([C@@H]4CCCN(C(=O)/C(C#N)=C/C(C)(C)C)C4)c4c(OC)cncc34)cc2)c1F` [Compound 90, (R,E)-2-(3-(3-(4-(2-fluoro-3-methoxyphenoxy)phenyl)-7-methoxy-1H-pyrazolo[4,3-c]pyridin-1-yl)piperidine-1-carbonyl)-4,4-dimethylpent-2-enenitrile] was 0.01 to 0.1 µM. For `COc1cccc(Oc2ccc(-c3nn(CC4CCCN4C(=O)/C(C#N)=C/C(C)(C)C)c4c(OC)cncc34)cc2)c1F` (centres unmarked) [Compound 92, (E)-2-(2-((3-(4-(2-fluoro-3-methoxyphenoxy)phenyl)-7-methoxy-1H-pyrazolo[4,3-c]pyridin-1-yl)methyl)pyrrolidine-1-carbonyl)-4,4-dimethylpent-2-enenitrile], the IC50 was 0.01 to 0.1 µM.

For `C=CC(=O)N1CCC[C@@H](n2nc(-c3ccc(Oc4cccc(OC)c4F)cc3)c3cncc(OCCN(C)C)c32)C1` [Compound 93, (R)-1-(3-(7-(2-(dimethylamino)ethoxy)-3-(4-(2-fluoro-3-methoxyphenoxy)phenyl)-1H-pyrazolo[4,3-c]pyridin-1-yl)piperidin-1-yl)prop-2-en-1-one], the IC50 is < 0.01 µM.
